A short description of data set [1]: Pharmacokinetic study of seven phenolic acids in rat plasma after oral administration of E. purpurea extract (UHPLC-ESI-MS/MS). The class given is in vivo. The note with it: male SD rats, oral E. purpurea extract 10 g/kg, n = 12, mean ± SD; for AUC(0-inf) / AUC(0-t) / Cmax / Tmax / half-life: Sprague-Dawley, rat. As for the experimental part: Twelve male Sprague-Dawley (SD) rats (body weight 220 ± 20 g) were provided by Heilongjiang University of Chinese Medicine (Harbin, China). Each rat fasted 12 h before administration, with free drinking during the experiment. Blood samples were obtained from rats after oral administration of the extract of E. purpurea with a dose of 10 g/kg body weight. Blood samples (0.25 mL) of the retinal venous plexus were taken at 0.083, 0.25, 0.75, 1.0, 1.5, 2, 3, 4, 6, 8, 12, 24 and 36 h, then moved immediately into a 0.5 mL centrifuge tube that was spread with heparin at each time point. Meanwhile, the animal blood was centrifuged at 13,000 rpm for 5 min at 4 °C. The plasma was frozen in a −20 °C refrigerator in case of deterioration.
First, the frozen plasma was thawed at room temperature and then a liquid–liquid extraction (LLE) method was utilized. Then, a 100 μL aliquot of each plasma sample was removed except for the calibration standards which was mixed with 10 μL IS into a 10 mL glass tube. We continued by adding 100 μL methanol and 100 μL 30% formic acid, vortex-mixing for 1 min, then extracted 3 mL ethyl acetate, vortex-mixing for 3 min, centrifuged for 5 min (3500 rpm), and transferred the upper organic layer into a new tube. The layer of ethyl acetate was dried with a stream of nitrogen, the dry residue was dissolved with a 100 μL mobile phase, vortexed for 2 min and samples were filtered by a 0.22 μm microporous membrane. A 10 μL aliquot was injected into the UHPLC-ESI-MS/MS system.
The rat plasma concentration-time curves of seven compounds were plotted. After oral administration of E. purpurea extract in twelve rats, the maximum drug concentration in rat plasma (Cmax) and the time to reach maximum drug concentration (Tmax) were directly obtained from concentration-time data. The elimination rate constant (Ke) was calculated by linear regression of the terminal points in a semi-log plot of the plasma concentration against time. The elimination half-life (T1/2) was calculated by the formula T1/2 = 0.693/Ke. Other pharmacokinetic parameters including the area under the concentration-time curve (AUC0→t), and the area under the plasma concentration-time curve to time infinity (AUC0→∞) were calculated using non-compartmental pharmacokinetics analysis.

A short description of data set [2]: Stability of the analytes in rat plasma QC samples under different storage conditions. The class given is physicochemical. The note with it: post-preparation samples, 12 h at 4 °C, n = 6. How it is done: The post-preparation samples were analyzed after storage for 12 h at 4 °C. The peak area ratio response of stability samples was determined and versus those freshly prepared. For all stability results, the analyzing samples were considered stable when the percentage of relative error (RE) was within ±15% compared with freshly prepared QC samples.

Assay in data set [3]: as above
In kind it is physicochemical. To be noted: n = 6; for Stability (RE%) Short-Term: 4 h at room temperature; for Stability (RE%) Freeze-Thaw: three freeze-thaw cycles (−20 °C / ambient); for Stability (RE%) Long-Term: −20 °C for 2 weeks.

Seven molecules from paper PMC6151385, “Simultaneous Determination of Seven Phenolic Acids in Rat Plasma Using UHPLC-ESI-MS/MS after Oral Administration of Echinacea purpurea Extract” (Molecules : A Journal of Synthetic Chemistry and Natural …, 2017) can be followed below.

Each structure is given as a SMILES string.

Regarding `O=C(O)c1ccc(O)c(O)c1` [3,4-Dihydroxy benzoic acid, 3,4-dihydroxybenzoic acid], in data set [1], the AUC(0-inf) (commonly total exposure, with the tail of the curve extrapolated) came out at 2050 ± 116 ng·h/mL; the AUC(0-t) (usually the area under the concentration-time curve up to a stated or last time point) was 1930 ± 123 ng·h/mL; the Cmax – broadly, the maximum level reached in the sampled fluid or tissue – was determined as 127 ± 18.1 ng/mL; the Tmax (commonly the time from dosing to the highest level) amounted to 0.77 ± 0.07 h. For the same molecule, in data set [1], the half-life (usually how long it takes for the measured level to halve) was 447 ± 52.2 min. Moreover, the “Stability (RE%) Post-Preparative” value in data set [2] (high QC) was −4.01%. The “Stability (RE%) Post-Preparative” value in data set [2] (low QC) turned out to be 9.29%. Moreover, the “Stability (RE%) Post-Preparative” value in data set [2] (medium QC) is listed as −5.47%. Moreover, in data set [3] (high QC), the “Stability (RE%) Short-Term” value was 4.80%, the “Stability (RE%) Freeze-Thaw” value is on record as −0.52% and the “Stability (RE%) Long-Term” value was found to be 3.65%. In addition, in data set [3] (low QC), the “Stability (RE%) Short-Term” value came to 2.03%, the “Stability (RE%) Freeze-Thaw” value is given as −0.11% and the “Stability (RE%) Long-Term” value is recorded as −2.93%. In data set [3] (medium QC), the “Stability (RE%) Short-Term” value came out at 10.18%, the “Stability (RE%) Freeze-Thaw” value came to 6.57% and the “Stability (RE%) Long-Term” value was determined as 2.30%.

For `O=C(O)c1ccc(O)cc1` [4-Hydroxy benzoic acid, 4-hydroxybenzoic acid], in data set [1], the AUC(0-inf) was determined as 1950 ± 176 ng·h/mL, the AUC(0-t) came out at 1640 ± 122 ng·h/mL, the concentration peaked (Cmax) at 145 ± 11.6 ng/mL and the Tmax is 1.96 ± 0.14 h. This molecule also had a half-life in data set [1] of 895 ± 322 min. In addition, in data set [2] (high QC), the “Stability (RE%) Post-Preparative” value turned out to be 7.71%. In addition, the “Stability (RE%) Post-Preparative” value in data set [2] (low QC) is listed as −6.42%. Also, the “Stability (RE%) Post-Preparative” value in data set [2] (medium QC) is on record as 10.47%. Also, in data set [3] (high QC), the “Stability (RE%) Short-Term” value was −2.50%, the “Stability (RE%) Freeze-Thaw” value is given as −1.01% and the “Stability (RE%) Long-Term” value is reported as 2.81%. Moreover, in data set [3] (low QC), the “Stability (RE%) Short-Term” value is listed as 10.62%, the “Stability (RE%) Freeze-Thaw” value was 10.03% and the “Stability (RE%) Long-Term” value is −3.31%. In addition, in data set [3] (medium QC), the “Stability (RE%) Short-Term” value was −0.46%, the “Stability (RE%) Freeze-Thaw” value is given as 2.63% and the “Stability (RE%) Long-Term” value is 0.21%.

Take `O=C(O)/C=C/c1ccc(O)c(O)c1` [Caffeic acid, caffeic acid]: in data set [1], the AUC(0-inf) amounted to 9330 ± 442 ng·h/mL, the AUC(0-t) turned out to be 9220 ± 453 ng·h/mL, the Cmax came to 855 ± 35.9 ng/mL and the Tmax stood at 8 h. In data set [1], this molecule gave a half-life of 319 ± 30 min. Further, the “Stability (RE%) Post-Preparative” value in data set [2] (high QC) was 9.83%. Further, the “Stability (RE%) Post-Preparative” value in data set [2] (low QC) was found to be 10.35%. Also, the “Stability (RE%) Post-Preparative” value in data set [2] (medium QC) amounted to 3.89%. In addition, in data set [3] (high QC), the “Stability (RE%) Short-Term” value is 6.12%, the “Stability (RE%) Freeze-Thaw” value was found to be 6.15% and the “Stability (RE%) Long-Term” value is −1.54%. Moreover, in data set [3] (low QC), the “Stability (RE%) Short-Term” value is on record as 7.45%, the “Stability (RE%) Freeze-Thaw” value came out at 7.79% and the “Stability (RE%) Long-Term” value came to 6.01%. Moreover, in data set [3] (medium QC), the “Stability (RE%) Short-Term” value is on record as −0.16%, the “Stability (RE%) Freeze-Thaw” value came to 2.18% and the “Stability (RE%) Long-Term” value worked out at 1.00%.

`COc1cc(/C=C/C(=O)O)ccc1O` [Ferulic acid, ferulic acid]: in data set [1], the AUC(0-inf) came to 6020 ± 498 ng·h/mL, the AUC(0-t) came to 5620 ± 453 ng·h/mL, the peak level (Cmax) was 359 ± 43.8 ng/mL and the Tmax is 8 h. The molecule further showed a half-life in data set [1] of 509 ± 42.6 min. Further, the “Stability (RE%) Post-Preparative” value in data set [2] (high QC) is −4.91%. The “Stability (RE%) Post-Preparative” value in data set [2] (low QC) is recorded as −0.89%. In data set [2] (medium QC), the “Stability (RE%) Post-Preparative” value amounted to 4.84%. Also, in data set [3] (high QC), the “Stability (RE%) Short-Term” value is given as −8.77%, the “Stability (RE%) Freeze-Thaw” value is on record as −13.12% and the “Stability (RE%) Long-Term” value is listed as −1.89%. Moreover, in data set [3] (low QC), the “Stability (RE%) Short-Term” value is listed as −4.21%, the “Stability (RE%) Freeze-Thaw” value is reported as −7.10% and the “Stability (RE%) Long-Term” value is on record as 7.93%. In data set [3] (medium QC), the “Stability (RE%) Short-Term” value was 4.61%, the “Stability (RE%) Freeze-Thaw” value is −3.80% and the “Stability (RE%) Long-Term” value stood at 6.80%.

Take `COc1cc(C(=O)O)cc(OC)c1O` [Syringic acid, syringic acid]: in data set [1], the AUC(0-inf) came out at 1950 ± 164 ng·h/mL, the AUC(0-t) came out at 1650 ± 133 ng·h/mL, the peak level (Cmax) was 122 ± 16.4 ng/mL and the Tmax came out at 1.54 ± 0.14 h. The half-life in data set [1] is 793 ± 99.6 min. Moreover, in data set [2] (high QC), the “Stability (RE%) Post-Preparative” value is on record as −6.08%. In addition, in data set [2] (low QC), the “Stability (RE%) Post-Preparative” value is reported as −10.74%. Moreover, the “Stability (RE%) Post-Preparative” value in data set [2] (medium QC) is on record as −7.64%. Moreover, in data set [3] (high QC), the “Stability (RE%) Short-Term” value is listed as −5.73%, the “Stability (RE%) Freeze-Thaw” value is −2.61% and the “Stability (RE%) Long-Term” value was −1.30%. For the same molecule, in data set [3] (low QC), the “Stability (RE%) Short-Term” value is −1.95%, the “Stability (RE%) Freeze-Thaw” value is recorded as −3.75% and the “Stability (RE%) Long-Term” value was −0.66%. In addition, in data set [3] (medium QC), the “Stability (RE%) Short-Term” value is −1.50%, the “Stability (RE%) Freeze-Thaw” value is given as 4.48% and the “Stability (RE%) Long-Term” value is given as −0.79%.

With `COc1cc(C(=O)O)ccc1O` [Vanillic acid, vanillic acid], in data set [1], the AUC(0-inf) turned out to be 3440 ± 234 ng·h/mL, the AUC(0-t) is 3140 ± 264 ng·h/mL, the highest level (Cmax) was 228 ± 11.9 ng/mL and the time of peak concentration (Tmax) was found to be 0.75 h. This molecule also yielded a T1/2 in data set [1] of 8.89 ± 1.12 h. Also, the “Stability (RE%) Post-Preparative” value in data set [2] (high QC) is −8.03%. Besides, the “Stability (RE%) Post-Preparative” value in data set [2] (low QC) was 9.11%. Also, in data set [2] (medium QC), the “Stability (RE%) Post-Preparative” value is reported as −6.34%. In data set [3] (high QC), the “Stability (RE%) Short-Term” value is reported as 1.59%, the “Stability (RE%) Freeze-Thaw” value worked out at 5.28% and the “Stability (RE%) Long-Term” value was −0.32%. In addition, in data set [3] (low QC), the “Stability (RE%) Short-Term” value is recorded as 2.24%, the “Stability (RE%) Freeze-Thaw” value is −6.56% and the “Stability (RE%) Long-Term” value was found to be 2.91%. Also, in data set [3] (medium QC), the “Stability (RE%) Short-Term” value was −0.67%, the “Stability (RE%) Freeze-Thaw” value is 5.74% and the “Stability (RE%) Long-Term” value was −0.37%.

On to `O=C(O)/C=C/c1ccc(O)cc1` [p-Coumaric acid, p-coumaric acid], for which, in data set [1], the AUC(0-inf) was found to be 3440 ± 218 ng·h/mL, the AUC(0-t) came out at 3130 ± 156 ng·h/mL, the Cmax worked out at 293 ± 16.4 ng/mL and the Tmax worked out at 0.75 h. The half-life in data set [1] is 559 ± 77.4 min. For the same molecule, in data set [2] (high QC), the “Stability (RE%) Post-Preparative” value turned out to be 7.12%. In addition, the “Stability (RE%) Post-Preparative” value in data set [2] (low QC) is on record as 8.52%. Besides, in data set [2] (medium QC), the “Stability (RE%) Post-Preparative” value is recorded as 11.50%. In data set [3] (high QC), the “Stability (RE%) Short-Term” value is given as −4.81%, the “Stability (RE%) Freeze-Thaw” value is recorded as −8.78% and the “Stability (RE%) Long-Term” value is listed as −5.30%. Moreover, in data set [3] (low QC), the “Stability (RE%) Short-Term” value is −3.59%, the “Stability (RE%) Freeze-Thaw” value is recorded as −7.57% and the “Stability (RE%) Long-Term” value is on record as −6.75%. Besides, in data set [3] (medium QC), the “Stability (RE%) Short-Term” value was 1.57%, the “Stability (RE%) Freeze-Thaw” value is recorded as −0.82% and the “Stability (RE%) Long-Term” value is −5.40%.
